Test results reported in the OPERA property sets (Mansouri et al. 2018).

Conditions: for log10 biotransformation half-life (days) / log10 BCF: fish

SMILES | boiling point [°C] | melting point [°C] | other results
CC=C(C(=O)OC)C(=O)OC | – | – | ready biodegradability: readily biodegradable
CC1(C)[C@H]2CC=C(CO)[C@@H]1C2 | 222 | – | –
C#CC(C)Cl (stereo not drawn) | 68.5 | – | –
CN1C(CSCC(F)(F)F)Nc2cc(Cl)c(S(N)(=O)=O)cc2S1(=O)=O (stereo not drawn) | – | 214 | –
CCCCCCCCCCCCCCCCOCC(O)CO (stereo not drawn) | – | 64 | –
C=Cc1scnc1C | – | -15 | –
O=c1c2ccccc2c(=O)c2c1ccc1[nH]c3c(ccc4c(=O)c5ccccc5c(=O)c43)[nH]c12 | – | – | ready biodegradability: not readily biodegradable
Cc1[nH]nc(Cl)c1[N+](=O)[O-] | – | 111 | –
CCCCC(=O)N(C)C | – | -51 | –
Cc1c(CN2CCOC(c3ccccc3)C2C)c(=O)n(-c2ccccc2)n1C (stereo not drawn) | – | 150 | –
O=C(NC(=O)c1c(F)cccc1F)Nc1ccc(CO/N=C(\c2ccc(Cl)cc2)C2CC2)cc1 | – | 144 | –
CC1c2ccccc2-c2ccccc21 | – | 46.5 | –
C=CCCCCCCCCCCCC | 233 | -12 | log10 vapour pressure (mmHg): -1.82
COc1ccccc1NC(N)=S | – | 156 | –
Nc1cccc(S(=O)(=O)c2cccc(N)c2)c1 | – | 172 | ready biodegradability: not readily biodegradable
O=S(c1ccccc1)c1ccccc1 | – | 71.2 | –
c1ccc2c(c1)c1ccccc1c1ccccc21 | 425 | 199 | log10 biodegradation half-life (days): 2.58; log10 vapour pressure (mmHg): -7.68; log10 biotransformation half-life (days): -0.08
C=CCOCCC | 91 | – | log10 vapour pressure (mmHg): 1.78
CN(C)CCN(C)CCN(C)C | – | – | ready biodegradability: not readily biodegradable
C=CCN1CC[C@]23CCCC[C@H]2[C@H]1Cc1ccc(O)cc13 | – | 181 | –
O=C(O)c1cc(-c2ccc(F)cc2F)ccc1O | – | 216 | –
Cc1coc(C)c1 | 94 | – | –
CCCCN(CCO)CCCC | 229 | -75 | ready biodegradability: not readily biodegradable
Cc1cccc2c1ccc1cc(C(C)C)ccc12 | 390 | 101 | –

SMILES | boiling point [°C] | melting point [°C] | other results
FC(F)(F)C(F)(F)Cl | -37.9 | -99.4 | log10 vapour pressure (mmHg): 3.84
CCN(C)N=O | 170 | – | –
CC1Cc2ccccc2N1NC(=O)c1ccc(Cl)c(S(N)(=O)=O)c1 (stereo not drawn) | – | 161 | –
Nc1ccc2ccccc2c1N | – | 98.5 | –
CCCSC | 95.6 | -113 | log10 vapour pressure (mmHg): 1.71
OCCN1CCN(CCCN2c3ccccc3C=Cc3ccccc32)CC1 | – | 100 | –
COC(=O)c1cc(C)ccc1O | 244 | -1 | –
COc1ccccc1C(=O)O | – | 101 | log10 vapour pressure (mmHg): -4.8; ready biodegradability: readily biodegradable
Cc1ccc2sccc2c1 | – | 20.5 | –
CC1(C)[C@H](C(=O)O[C@H](C#N)c2cccc(Oc3ccccc3)c2)[C@@H]1/C=C\C(=O)OC(C(F)(F)F)C(F)(F)F | – | 81.5 | log10 vapour pressure (mmHg): -9.48
COc1ccco1 | 110 | – | –
CN.Cl | – | 228 | –
CSC(=O)c1c(C(F)F)nc(C(F)(F)F)c(C(=O)SC)c1CC(C)C | – | 65 | –
C[Si](C)(C)O[Si](O[Si](C)(C)C)(O[Si](C)(C)C)O[Si](C)(C)C | – | – | log10 vapour pressure (mmHg): -1.17
C=Cc1ccco1 | 99.5 | -94 | –
CCN(CC)C(=O)SCc1ccccc1Cl | – | 9 | log10 vapour pressure (mmHg): -4.03
OCCNc1ccccc1 | 280 | 11 | log10 vapour pressure (mmHg): -2.66
FC(F)(F)C(F)(Cl)C(F)(Cl)C(F)(F)F (stereo not drawn) | 63 | -68 | –
CCCCCCCCCCCC(CCCCCCCC)c1ccccc1 (stereo not drawn) | – | 17.9 | –
FC(F)C(F)(F)C(F)Cl (stereo not drawn) | 28.1 | 85 | –
CC(C)=CC(=O)C=C(C)C | 198 | 28 | log10 vapour pressure (mmHg): -0.557
O=[N+]([O-])c1ccc(CBr)cc1 | – | 99 | –
Cc1ccc(N)cc1Cl | 243 | 26 | –
C1CCC2NC2C1 (stereo not drawn) | 150 | 21 | –

SMILES | boiling point [°C] | melting point [°C] | other results
Oc1ccc(C2CCCC2)cc1 | – | 65 | –
COc1cc(CCn2cccc2C(=O)O)cc(OC)c1OC | – | 132 | –
Cc1c2ccccc2c(C)c2ccccc12 | – | 183 | –
CC(C)(C)N=C=S | 140 | 10.5 | –
CCCCCCCCCCCCCCCCCC(=O)OCCCCC | – | 30 | –
Clc1ccc(CSC(Cn2cncn2)=Nc2ccc(Cl)cc2Cl)cc1 | – | 90 | log10 vapour pressure (mmHg): -9.2
CCC(Cl)[N+](=O)[O-] (stereo not drawn) | 142 | – | –
CC(=O)Oc1c(C(C)(C)C)cc([N+](=O)[O-])c(C)c1[N+](=O)[O-] | – | 86.5 | –
CN(C)c1ccc2ccccc2c1 | 305 | 52.5 | –
COc1cc(C#N)cc(OC)c1OC | – | 93.8 | –
CCOC(=O)CCBr | 179 | – | –
C=C1CC[C@@]2(O)[C@H]3Cc4ccc(O)c5c4[C@@]2(CCN3CC2CC2)[C@H]1O5 | – | 189 | –
Clc1c2ccccc2nc2ccccc12 | – | 121 | –
COc1ccc(Cc2nccc3cc(OC)c(OC)cc23)cc1OC | – | 148 | –
CC(C)(C)c1cc(CCC(=O)OCC(COC(=O)CCc2cc(C(C)(C)C)c(O)c(C(C)(C)C)c2)(COC(=O)CCc2cc(C(C)(C)C)c(O)c(C(C)(C)C)c2)COC(=O)CCc2cc(C(C)(C)C)c(O)c(C(C)(C)C)c2)cc(C(C)(C)C)c1O | – | – | ready biodegradability: not readily biodegradable
Cc1cc(Br)ccc1N | 240 | 59.5 | –
Cc1ccc([N+](=O)[O-])cc1Cl | 260 | 66.5 | ready biodegradability: not readily biodegradable
C1COC1 | 47.6 | -97 | log10 vapour pressure (mmHg): 2.51
CCCC(C)CC(C)C (stereo not drawn) | 133 | – | log10 biodegradation half-life (days): 0.778
CCCCCCC(=O)O | 222 | -7.5 | log10 vapour pressure (mmHg): -1.97; ready biodegradability: readily biodegradable
Cc1ccc(C(=O)O)o1 | – | 110 | –
Cc1ccc(C(=O)c2csc(S(N)(=O)=O)c2)cc1 | – | 176 | –
CCC#CCCC | 107 | -130 | –
S=C=NCc1ccccc1 | 243 | – | log10 vapour pressure (mmHg): -1.81

SMILES | boiling point [°C] | melting point [°C] | other results
Clc1cc(Cl)c(-c2c(Cl)cccc2Cl)c(Cl)c1 | – | 85 | –
CCCCCC[Si](Cl)(CCCCCC)CCCCCC | – | – | ready biodegradability: not readily biodegradable
FC(F)OC(F)(F)C(F)Cl (stereo not drawn) | 56.5 | – | –
O=C1CCC(c2ccccc2)O1 (stereo not drawn) | 306 | 36.5 | –
CCN(CC)CCOc1ccc(C(O)(Cc2ccc(Cl)cc2)c2ccc(C)cc2)cc1 (stereo not drawn) | – | 103 | –
CCCCCCCCCN | 202 | -1 | log10 vapour pressure (mmHg): -0.556
CN(C)C(=O)Nc1ccc(F)cc1 | – | – | log10 Koc (L/kg): 1.43
CCCCCCCCCC(=O)OC | 224 | -18 | log10 vapour pressure (mmHg): -1.43
CCC#CCC | 81 | -103 | –
CCC(=O)C(CC(C)N1CCOCC1)(c1ccccc1)c1ccccc1 (stereo not drawn) | – | 75.5 | –
O=S(=O)(O)CCCNC1CCCCC1 | – | 302 | –
Nc1ccccc1-c1ccccc1 | 299 | 51 | ready biodegradability: not readily biodegradable; log10 BCF: 1.41; log10 biotransformation half-life (days): -1.06
CCCCCCCCCCCCCCCCCCCCCCCCCCO | – | 80 | ready biodegradability: readily biodegradable
O=Cc1ccc(Cl)cc1 | 214 | 47.5 | log10 BCF: 0.32; log10 biotransformation half-life (days): 0.01
COc1cc2c(cc1OC)C(=O)NCC2 | – | 175 | –
O=C(O)c1cc(Oc2ccc(C(F)(F)F)cc2Cl)ccc1[N+](=O)[O-] | – | 150 | log10 Koc (L/kg): 2.05
CC1=CC(=O)CCC1(C)C | 217 | – | –
COc1nsnc1NS(=O)(=O)c1ccc(N)cc1 | – | 150 | –
COC(=O)c1ccc(OC)cc1 | 256 | 49 | –
O=C(O)CCCCl | – | 16 | –
CCN1CCOCC1 | 138 | -64 | log10 vapour pressure (mmHg): 0.702; ready biodegradability: not readily biodegradable
COc1cc(C(=O)c2ccc(Cl)cc2)cc(OC)c1OCCN1CCOCC1 | – | 91.5 | –
O=C1CCCCC1Cl (stereo not drawn) | – | 23 | –
CCC(C(=O)NC(=O)NC(C)=O)c1ccccc1 (stereo not drawn) | – | 100 | –

SMILES | boiling point [°C] | melting point [°C] | other results
CC1=NN(c2ccccc2)C(=O)C1 | – | 129 | –
COC(=O)COc1ccccc1 | 245 | 245 | –
OCCN1CN(CCO)CN(CCO)C1 | – | – | ready biodegradability: readily biodegradable
CC[C@@H](C(=O)[C@@H](C)[C@@H](O)[C@H](C)[C@@H]1O[C@@H]([C@@H](CC)C(=O)O)CC[C@@H]1C)[C@H]1O[C@]2(C=C[C@@H](O)[C@]3(CC[C@@](C)([C@H]4CC[C@](O)(CC)[C@H](C)O4)O3)O2)[C@H](C)C[C@@H]1C | – | 113 | –
COc1cc(C=O)ccc1O | 285 | 81.5 | log10 vapour pressure (mmHg): -3.93; ready biodegradability: readily biodegradable
CC[N+](C)(CC)CCOC(=O)C1c2ccccc2Oc2ccccc21.[Br-] | – | 174 | –
CCCCCOC(=O)CCCC | 204 | -78.8 | –
O=S(=O)(O)C(F)(F)C(F)(F)C(F)(F)C(F)(F)C(F)(F)C(F)(F)F | 238 | – | –
Cn1c2ccccc2c2ccccc21 | – | 89.3 | –
CC(=O)C(C)Cl (stereo not drawn) | 115 | – | –
CCc1ccc2ccccc2n1 | 246 | – | –
C/C(=C\C(=O)O)C1CCCCC1 | – | 85.5 | –
CC(=O)OO[N+](=O)[O-] | 106 | – | log10 Henry constant (atm·m³/mol): -3.56
CCOP(=S)(OCC)OCCSCC | – | – | log10 Koc (L/kg): 2.59
Cc1cc(C(C)(C)C)ccc1O | 237 | 27.5 | log10 vapour pressure (mmHg): -1.55
CN1CN(C)CN(C)C1 | 163 | -27 | –
CC(=O)[O-].[Na+] | – | 324 | –
CCCCCOC(=O)c1ccccc1C(=O)OCCCCC | 342 | – | –
O=C(C(=O)c1cc(Br)ccc1O)c1cc(Br)ccc1O | – | 212 | –
Clc1ccc(-c2cc(Cl)c(Cl)c(Cl)c2Cl)c(Cl)c1 | – | – | log10 biotransformation half-life (days): 2.34
COc1c(F)c(F)c(F)c(F)c1F | 138 | -37 | –
O=C1CNC(=O)N1 | – | 220 | ready biodegradability: readily biodegradable
CCCCCCOc1ccc(N)cc1 | – | 44 | –
CC1CCCCCCCCCCCCC(=O)C1 (stereo not drawn) | 329 | – | –
